US8440637B2, “Combination treatment for the treatment of hepatitis C virus infection” (priority 2007, dated 2013)
l = locked nucleic acid (LNA); d = 2'-deoxy (DNA)

Legend:
miR-122 [1] = experiment: Genome-wide liver expression profiling, Affymetrix Mouse Genome 430 2.0 arrays; assay type: in vivo
Description: We carried out genome-wide expression profiling of total RNA samples from saline LNA-antimiR-122 treated and LNA mismatch control treated mice livers 24 hours after the last dose using Affymetrix Mouse Genome 430 2.0 arrays. […] We subsequently examined the 3′ untranslated regions (UTRs) of the differentially expressed mRNAs for the presence of the 6 nt sequence CACTCC, corresponding to the reverse complement of the nucleotide 2-7 seed region in mature miR-122.
Expression profiles of livers of saline and LNA-antimiR treated mice were compared. NMRI female mice were treated with 25 mg/kg/day of LNA-antimiR along with saline control for three consecutive days and sacrificed 24 h, 1, 2 or 3 weeks after last dose. Additionally, expression profiles of livers of mice treated with the mismatch LNA control oligonucleotide 24 h after last dose were obtained. Three mice from each group were analyzed, yielding a total of […] expression profiles. RNA quality and concentration was measured using an Agilent 2100 Bioanalyzer and Nanodrop ND-1000, respectively. Total RNA was processed following the GeneChip Expression 3′-Amplification Reagents One-cycle cDNA synthesis kit instructions (Affymetrix Inc, Santa Clara, Calif., USA) to produce double-stranded cDNA. This was used as a template to generate biotin-labeled cRNA following manufacturer's specifications. Fifteen micrograms of biotin-labeled cRNA was fragmented to strands between 35 and 200 bases in length, of which 10 micrograms were hybridised onto Affymetrix Mouse Genome 430 2.0 arrays overnight in the GeneChip Hybridisation oven 6400 using standard procedures. The arrays were washed and stained in a GeneChip Fluidics Station 450. Scanning was carried out using the GeneChip Scanner 3000 and image analysis was performed using GeneChip Operating Software. Normalization and statistical analysis were done using the LIMMA software package for the R programming environment27. Probes reported as absent by GCOS software in all hybridizations were removed from the dataset. Additionally, an intensity filter was applied to the dataset to remove probes displaying background-corrected intensities below 16. Data were normalized using quantile normalization28. Differential expression was assessed using a linear model method. P values were adjusted for multiple testing using the Benjamini and Hochberg. Tests were considered to be significant if the adjusted p values were p<0.05. Clustering and visualization of Affymetrix array data were done using the MultiExperiment Viewer software29.

miR-122 [2] = assay type: in vivo, mouse
Description: Liver cryo-sections from treated animals were subjected to in situ hybridizations for detection and localization of miR-122 and SEQ ID NO: 61 (FIG. 14). A probe complementary to miR-122 could detect miR-122a. A second probe was complementary to SEQ ID NO: 61. Shown in FIG. 14 is an overlay, in green is distribution and apparent amounts of miR-122a and SEQ ID NO: 61 and blue is DAPI nuclear stain, at 10× magnification. 100× magnifications reveal the intracellular distribution of miR-122a and SEQ ID NO: 61 inside the mouse liver cells.

[3] = mouse, in vivo
Description: (§1) C57BL/6J female mice were fed on high fat diet for 13 weeks before the initiation of the SEQ ID NO: 63 treatment. […] Both hypercholesterolemic and normal mice were treated i.p. twice weekly with 5 mg/kg SEQ ID NO: 63 and the corresponding mismatch control for a study period of 5½ weeks. Blood samples were collected weekly and total plasma cholesterol was measured during the entire course of the study. Upon sacrificing the mice, liver and blood samples were prepared for total RNA extraction, miRNA and mRNA quantification, assessment of the serum transaminase levels, and liver histology.
Serum from each individual mouse was prepared as follows: Blood samples were stored at room temperature for 2 h before centrifugation (10 min, 3000 rpm at room temperature). After centrifugation, serum was harvested and frozen at −20° C.
ALT and AST measurement was performed in 96-well plates using ALT and AST reagents from ABX Pentra according to the manufacturer's instructions. In short, serum samples were diluted 2.5 fold with H2O and each sample was assayed in duplicate. After addition of 50 μl diluted sample or standard (multical from ABX Pentra) to each well, 200 μl of 37° C. AST or ALT reagent mix was added to each well. Kinetic measurements were performed for 5 min with an interval of 30 s at 340 nm and 37° C. using a spectrophotometer.

miR-122 [4] = experiment: Total plasma cholesterol in hypercholesterolemic and normal mice, long-term treatment; assay type: in vivo, mouse; conditions: 5 mg/kg i.p. twice weekly
Description: as §1
C57BL/6J female mice (Taconic M&B Laboratory Animals, Ejby, Denmark) were used. All substances were formulated in physiological saline (0.9% NaCl) to final concentration allowing the mice to receive an intraperitoneal injection volume of 10 ml/kg.
In the diet induced obesity study, the mice received a high fat (60EN %) diet (D12492, Research Diets) for 13 weeks to increase their blood cholesterol level before the dosing started. The dose regimen was stretched out to 5½ weeks of 5 mg/kg LNA-antimiR™ twice weekly. Blood plasma was collected once a week during the entire dosing period. After completion of the experiment the mice were sacrificed and RNA extracted from the livers for further analysis. Serum was also collected for analysis of liver enzymes.
Immediately before sacrifice retro-orbital sinus blood was collected in EDTA-coated tubes followed by isolation of the plasma fraction. Total plasma cholesterol was analysed using ABX Pentra Cholesterol CP (Horiba Group, Horiba ABX Diagnostics) according to the manufacturer's instructions.

[5] = liver, 24 hours after the last dose

Substance	differentially expressed mRNAs (miR-122 [1]; 24 hours after the last LNA dose)	differentially expressed genes (miR-122 [1]; after one week)	transcripts downregulated (miR-122 [1]; [5])	transcripts upregulated compared to saline and LNA mismatch controls (miR-122 [1]; [5])	differentially expressed genes (miR-122 [1]; three weeks post treatment)	miR-122 staining pattern in liver sections (in words) (miR-122 [2]; liver cryo-sections from treated mice versus saline)	intracellular distribution of the oligonucleotide in hepatocytes (in words) (miR-122 [2]; mouse, in vivo)	ALT level (in words) [3]	alanine and aspartate aminotransferase (ALT and AST) levels compared to saline (in words) [3]	reduction of total plasma cholesterol compared to saline control (miR-122 [4]; hypercholesterolemic mice, after 10 days, sustained during the study)	effect on total plasma cholesterol (in words) (miR-122 [4]; normal diet mice)
5′-ccAttGtcAcaCtcCa-3′ (antisense CCATTGTCACACTCCA; sugars from the 5' end ddlddlddlddlddld, backbone and methylation of C not given here) [SEQ ID NO: 61]	509	251	54	455	18	significantly reduced patchy staining pattern	evenly distributed in the entire cytoplasm	–	–	–	–
5′-CcAttGTcaCaCtCC-3′ (antisense CCATTGTCACACTCC; sugars from the 5' end ldlddllddldldll, backbone and methylation of C not given here) [SEQ ID NO: 63]	–	–	–	–	–	–	–	possibly elevated ALT level	No changes	about 30%	not as pronounced
